Measured values as given in patent publication US20260317304A1, “TEAD INHIBITORS AND METHODS OF USE” (Sporos BioDiscovery, Inc., priority 2022, published 2026).

Columns and labels:
TEAD3 = TEAD3 (Homo sapiens, UniProt Q99594); experiment: TEAD thermal shift assay (TSA); type: binding
Excerpt: (§1) Thermal shift assay (TSA) is a biophysical method to evaluate stability of proteins with change in temperature. The assay measures thermal denaturation temperature in varying conditions such as different drug concentration. For this example, fluorogenic dye was used that bind to unfolded proteins. SYPRO Orange binds non-specifically to hydrophobic surfaces, and water strongly quenches its fluorescence. When the protein unfolds, the exposed hydrophobic surfaces bind the dye, resulting in an increase in fluorescence by excluding water. Detergent micelles also bind the dye and increase background noise dramatically. Binding of small molecules to proteins leads to a stabilization against to thermal denaturation with the degree of thermal stabilization proportional to the strength of binding.
(§2) The study described in this example investigated the change in melting temperature (ΔTm) of TEAD isoforms 1-4 when treated with TEAD inhibitors.
(§3) Tris-HCL was dissolved in 5 mL of Cell culture grade water and allowed to dissolve completely. The pH was adjusted to 8 using NaOH. Additional assay buffer components were added in the order listed above. The buffer was mixed slowly.
(§4) Assay buffer was prepared according to the procedures outlined above and dispensed into test wells. Spyro orange was added to a concentration of 5× in the assay buffer, followed by test compound stock solution which was added to a concentration of 10 μM or 30 μM in the assay buffer.
(§5) The melt cycle was performed in Bio-RAD PCR instrument from 20-95° C. with ramp rate of 1° C./min.

TEAD2 = TEAD2 (Homo sapiens, UniProt Q15562); experiment: TEAD thermal shift assay (TSA); type: binding
Excerpt: as §1, §2, §3, §4, §5

TEAD4 = TEAD4 (Homo sapiens, UniProt Q15561); experiment: TEAD thermal shift assay (TSA); type: binding
Excerpt: as §1, §2, §3, §4, §5

TEAD1 = TEAD1 (Homo sapiens, UniProt P28347); experiment: TEAD thermal shift assay (TSA); type: binding
Excerpt: as §1, §2, §3, §4, §5

MSTO-211H xenograft = experiment: Mouse xenograft MSTO-211H tumors compared to prior art TEAD inhibitor; type: in vivo, BALB/c nude mice; conditions: 7 days of treatment, PO BID, 12.5 mg/kg Compound 5
Protocol: This study evaluated the in vivo anti-tumor efficacy of test compounds in BALB/c nude mice for treatment of MSTO-211H xenograft of lung cancer.
The MSTO-211H tumor cells were maintained in vitro in RPMI 1640 medium supplemented with 10% Fetal bovine serum and 1% Antibiotic-Antimycotic at 37° C. in an atmosphere of 5% CO2 in air. The tumor cells were routinely subcultured twice weekly by trypsin-EDTA. The cells growing in an exponential growth phase were harvested and counted for tumor inoculation.
Each mouse was inoculated subcutaneously at the right flank with MSTO-211H tumor cells (10×10^6+50% matrigel/0.2 mL) for tumor development. Test subjects received vehicle (e.g., 0.5% CMC-Na+1% Tween80) beginning on day 7 after cell inoculation. […]
The major endpoint was to determine if the tumor growth could be delayed. Tumor size was measured twice a week in two dimensions using a caliper, and the volume was expressed in mm^3 using the formula: V=0.5 a×b^2 where a and b are the long and short diameters of the tumor, respectively. […]
Summary statistics, including mean and the standard error of the mean (SEM), were calculated for the tumor volume of each group at each time point. […]
One-tailed T test was performed to compare tumor volumes between two groups. All data were analyzed using GraphPad Prism 6.0. p<0.05 was considered to be statistically significant.

TEAD isoforms 1-4 = experiment: TEAD thermal shift assay (TSA), outcome in words; type: binding, human
Excerpt: as §1, §2, §3, §4, §5

[1] = Ratio of Protein to Compound 1:1
[2] = Ratio of Protein to Compound 1:3

Chain of TEAD2 (Q15562 whole entry): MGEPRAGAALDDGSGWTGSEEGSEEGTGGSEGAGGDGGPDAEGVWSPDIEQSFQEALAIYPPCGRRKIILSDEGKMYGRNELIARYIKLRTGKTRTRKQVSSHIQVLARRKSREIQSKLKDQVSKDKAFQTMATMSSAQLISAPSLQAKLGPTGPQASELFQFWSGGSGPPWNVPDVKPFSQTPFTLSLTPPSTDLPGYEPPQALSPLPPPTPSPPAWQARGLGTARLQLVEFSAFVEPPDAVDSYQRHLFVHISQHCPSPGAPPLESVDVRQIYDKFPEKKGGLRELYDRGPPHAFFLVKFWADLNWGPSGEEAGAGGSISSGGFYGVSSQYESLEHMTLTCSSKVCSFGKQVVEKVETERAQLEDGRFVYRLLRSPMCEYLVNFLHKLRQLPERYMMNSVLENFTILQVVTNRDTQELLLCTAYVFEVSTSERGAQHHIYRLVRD
Chain of TEAD1 (P28347 whole entry): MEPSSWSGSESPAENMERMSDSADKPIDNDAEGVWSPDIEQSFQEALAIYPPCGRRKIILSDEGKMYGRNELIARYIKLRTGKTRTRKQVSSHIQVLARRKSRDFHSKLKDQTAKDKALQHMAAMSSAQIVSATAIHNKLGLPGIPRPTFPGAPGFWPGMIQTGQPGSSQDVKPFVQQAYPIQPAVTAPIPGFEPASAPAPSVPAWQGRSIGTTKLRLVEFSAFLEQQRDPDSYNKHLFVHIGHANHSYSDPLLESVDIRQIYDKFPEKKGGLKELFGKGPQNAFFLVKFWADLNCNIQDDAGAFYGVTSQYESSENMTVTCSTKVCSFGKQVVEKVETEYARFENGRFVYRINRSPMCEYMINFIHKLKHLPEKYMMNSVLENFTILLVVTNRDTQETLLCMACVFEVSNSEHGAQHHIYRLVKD
Chain of TEAD4 (Q15561 whole entry): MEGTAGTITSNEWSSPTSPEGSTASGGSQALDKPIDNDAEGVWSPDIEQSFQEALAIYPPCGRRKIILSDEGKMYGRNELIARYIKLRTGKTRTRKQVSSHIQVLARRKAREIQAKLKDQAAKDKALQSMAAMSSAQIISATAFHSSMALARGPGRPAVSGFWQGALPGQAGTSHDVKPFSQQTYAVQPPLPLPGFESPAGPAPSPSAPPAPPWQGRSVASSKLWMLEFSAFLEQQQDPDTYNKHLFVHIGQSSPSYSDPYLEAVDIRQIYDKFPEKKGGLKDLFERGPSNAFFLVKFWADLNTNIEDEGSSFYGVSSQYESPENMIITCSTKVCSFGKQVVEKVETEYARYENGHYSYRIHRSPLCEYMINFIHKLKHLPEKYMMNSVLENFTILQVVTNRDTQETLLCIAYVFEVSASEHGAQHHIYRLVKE
Chain of TEAD3 (Q99594 whole entry): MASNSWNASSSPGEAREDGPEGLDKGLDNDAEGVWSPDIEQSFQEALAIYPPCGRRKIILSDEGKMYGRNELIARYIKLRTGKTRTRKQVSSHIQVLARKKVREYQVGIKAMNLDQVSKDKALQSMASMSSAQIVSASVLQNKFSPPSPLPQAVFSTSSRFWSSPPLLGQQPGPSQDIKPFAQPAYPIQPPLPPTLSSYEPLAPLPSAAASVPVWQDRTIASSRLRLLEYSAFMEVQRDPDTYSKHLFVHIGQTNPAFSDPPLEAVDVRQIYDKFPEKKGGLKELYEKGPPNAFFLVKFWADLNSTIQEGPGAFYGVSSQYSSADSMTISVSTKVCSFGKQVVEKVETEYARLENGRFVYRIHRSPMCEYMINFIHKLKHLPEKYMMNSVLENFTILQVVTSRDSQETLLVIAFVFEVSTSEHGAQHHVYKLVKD

- TEAD3 ΔTm (TEAD3; [1]): 0 °C
- TEAD3 ΔTm (TEAD3; [2]): 0 °C
- TEAD2 ΔTm (TEAD2; [1]): 8.5 °C
- TEAD2 ΔTm (TEAD2; [2]): 11.5 °C
- TEAD4 ΔTm (TEAD4; [1]): 1.5 °C
- TEAD4 ΔTm (TEAD4; [2]): 7 °C
- TEAD1 ΔTm (TEAD1; [1]): 7 °C
- TEAD1 ΔTm (TEAD1; [2]): 10 °C
- thermal shift / TEAD binding (in words) (TEAD isoforms 1-4): strong TEAD1 and TEAD4 binding
SMILES: Cn1cnc(-c2cc([C@@]3(C)CCNC3=O)ccc2Nc2ccc(C(F)(F)F)cc2)c1 (single isomer, unassigned) [Compound 5, 3-methyl-3-(3-(1-methyl-1H-imidazol-4-yl)-4-((4-(trifluoromethyl)phenyl)amino)phenyl)pyrrolidin-2-one]
- change in tumor volume (in words) (MSTO-211H xenograft): tumor reduction was observed
